Laboratory results: patent US20030236218A1, “Aryl phosphate derivatives of d4T with selective activity against adenovirus and HIV” (priority 2002, published 2003)
Values after ≈ are worked out from the molar mass of the structure shown. Marks after values point to notes of the source that are not given here.

How the values were obtained:
[1] = Pharmacokinetic studies in mice, intravenous administration; type: in vivo, Balb/c mice; details: plasma analyte = label, after i.v. 100 mg/kg compound 113
Procedure: Female Balb/c mice (6-8 weeks old) from Taconic (Germantown, N.Y.) were housed in a controlled environment (12-hours of light/12-hours of dark, 22±1° C., 60±10% relative humidity), which is fully accredited by the USDA. All rodents were housed in microisolator cages (Lab Products, Inc., NJ) containing autoclaved bedding. The mice were allowed free access to autoclaved pellet food and tap water throughout the study.
Blood samples (˜500 μL) were obtained from the ocular venous plexus by retro-orbital venipuncture at 0, 2, 5, 10, 15, 30, 45, 60, 120, 240 and 360 minutes after intravenous injection.
All collected blood samples were heparinized and centrifuged at 7000×g for 5 minutes to separate the plasma fraction from the whole blood. The plasma samples were then processed immediately using the extraction procedure described above.
Pharmacokinetic modeling and parameter calculations were carried out using the WinNonlin Professional Version 3.0 (Pharsight, Inc., Mountain, Calif.) pharmacokinetics software (Chen et al., Pharm. Res., 16, 1003 (1999); Chen et al., Pharm. Res., 16, 117 (1999); Chen et al., J. Clin. Pharmacol., 39, 1248 (1999); Uckun et al., Clin. Cancer Res., 5, 2954 (1999); and Uckun et al., J. Pharmacol. Exp. Ther., 291, 1301 (1999)). An appropriate model was chosen on the basis of the lowest sum of weighted squared residuals, the lowest Schwartz Criterion (SC), the lowest Akaike's Information Criterion (AIC) value, the lowest standard errors of the fitted parameters, and the dispersion of the residuals. The elimination half-life was estimated by linear regression analysis of the terminal phase of the plasma concentration-time profile. The area under the concentration-time curve (AUC) was calculated according to the linear trapezoidal rule between the first sampling time (0 hours) and the last sampling time plus C/k, where C is the concentration of the last sampling and k is the elimination rate constant. The systemic clearance (CL) was determined by dividing the dose by the AUC. The metabolic clearance of the parent drug, the formation clearance of the metabolite, the clearance elimination of the metabolite, and the distribution clearance of the metabolite were estimated by simultaneous fitting of the concentration of parent drug and metabolites as a function of time curve to pharmacokinetic models (see FIGS. 7A & 8A) specified as a system of differential equations (Gabrielsson & Weiner, Phamacokinetic/Phamacodynamic Data Analysis: Concepts and Applications, Swedish Pharmaceutical Press (1997)).

[2] = test system: adenovirus strain Type 5, strain adenoid 75; experiment: Adenovirus plaque formation assay in skin fibroblast cell line SF; type: cell-based, human adenovirus; details: Adenovirus Type 5, 7 days, ± s.e., read-out: IC50, ADV-induced plaque formation
From the text: Virus stocks. The HIV-1 strain used in this study was HTLV-IIIB (Uckun et al., 1998 Antimicro. Agents and Chemother., 42:383-388). The non-HIV viruses included in the present study were the gancyclovir-sensitive cytomegalovirus (CMV) strain AD169 (ATCC VR-538); acyclovir-sensitive herpes simplex virus (HSV) Type I strain HF (ATCC VR-260); acyclovir-sensitive HSV Type II strain G (ATCC VR-734); adenovirus strain Type 5, strain adenoid 75 (ATCC VR-5); enterovirus strain, ECHO 30, strain Bastianni (ATCC VR-322); and respiratory syncytial virus (RSV), strain Long (ATCC VR-26).
Plaque formation assays. Plaque assays were used to examine the activity of the compounds against non-HIV viruses. The skin fibroblast cell line SF (ATCC CRL-2097) was used as a target for AD169, Adenovirus Type 5. […] cell line (ATCC CCL-81) was used as a target for HSV HF and G. The HEP-2 cell line (ATCC CCL-23) was used as a target for the RSV strain Long. These cell lines were cultured at 1×10^5 cells/well in 24-well (all but ECHO 30-infected SF) or 6-well (ECHO 30-infected SF) tissue culture plates with 0.9% methylcellulose or 0.4% SeaPlaque agarose semisolid support. Minimum Essential Medium (MEM) with Earle's salts (Gibco), L-glutamine, non-essential amino acids, 2% heat-inactivated fetal bovine serum, 1% penicillin/streptomycin, and 0.05% gentamicin served as the culture medium. The incubation times were 3 days for HF, G, ECHO 30, and Long; and 7 days for AD169 and Adenovirus Type 5. Plaque counting was performed with a 20X dissecting microscope for AD169, Type 5, ECHO 30, and RSV Long, and with a light box for HF and G. The fixative agent was crystal violet for all viruses, except for the CMV strain AD169 for which methylene blue was used. Percent inhibition of plaque formation was calculated by comparing the plaque numbers from the test substance-treated infected cells with the plaque numbers from untreated infected cells (i.e., virus controls). The IC50 values were determined using the Statview statistics program (SAS Institute, Inc., Cary, N.C.).
Statistical analysis. Each drug was tested at 6-7 different concentrations ranging from 0.0001 μM to 100 μM. Each assay was set up in triplicate wells and repeated 1-3 times. An IC50 value was calculated from each set of triplicate wells using nonlinear regression modeling of the exponential form of the linearized equation (Statview, SAS Institute, Inc., Cary, N.C.). […] The IC50 values obtained were correlated to the log transformed hydrolysis rate constants by fitting a linear model (JMP Software, SAS Institute Inc., Cary, N.C.). P-values less than 0.05 were deemed significant.
The skin fibroblast cell line SF (ATCC CRL-2097) was used as a target for AD169, Adenovirus Type 5, and ECHO 30; the VERO cell line (ATCC CCL-81) was used as a target for HF and G; and the HEP-2 cell line (ATCC CCL-23) was used as target for the RSV strain Long. Results are expressed as the average IC50 values in μM. Stavudine (STV) was included as a control.

[3] = Hydrolysis rate in alkali conditions; type: physicochemical
Procedure: Statistical analysis. Each drug was tested at 6-7 different concentrations ranging from 0.0001 μM to 100 μM. Each assay was set up in triplicate wells and repeated 1-3 times. An IC50 value was calculated from each set of triplicate wells using nonlinear regression modeling of the exponential form of the linearized equation (Statview, SAS Institute, Inc., Cary, N.C.). Hydrolysis rates were determined by fitting single exponential decay equations to the disappearance of the compound in alkali conditions (all R^2 values greater than 0.85). The IC50 values obtained were correlated to the log transformed hydrolysis rate constants by fitting a linear model (JMP Software, SAS Institute Inc., Cary, N.C.). P-values less than 0.05 were deemed significant.

[4] = Octanol/water partition coefficient, shake flask method; type: physicochemical; details: 4 hours at room temperature
Procedure: HPLC purification was achieved using a reverse-phase Lichrospher column (250×4 mm, Hewlett-Packard, RP-18, Cat. #79925) and an isocratic flow (1 ml/minute) consisting of water (70%) and acetonitrile (30%). Melting points were determined using a Melt John's apparatus and are uncorrected. Column chromatography was performed using silica gel obtained from Baker Company. The octanol/water partition coefficient was determined by the shake flask method. The phosphoramidate analogs were added to 2 ml of water and 2 ml of octanol in a glass vial. The mixture was shaken for 4 hours at room temperature. The two phases were carefully separated and filtered through a Millipore filter and analyzed by HPLC. The partition coefficient was calculated using the ratio of the area under the curve for octanol and water, respectively.

[5] = Solubility; type: physicochemical
[6] = estimate from composite curve of pooled data

Row | SMILES | Vss [1, 6] [L/kg] | Vss ([1]; mean ± S.E.M) | IC50 [2] [nM] | Hydrolysis Rate [3] [min⁻¹] | Oct/Water (log P) [4] | Solubility [5] [µg/mL]
1 | COC(=O)[C@H](C)NP(=O)(OC[C@@H]1C=C[C@H](n2cc(C)c(=O)[nH]c2=O)O1)Oc1ccc(Br)cc1 (stereo partly shown) | 0.8521 | (1005.3 ± 134.0) ml/kg |  |  |  | 
2 | COC(=O)[C@H](C)NP(=O)(OCC1C=CC(n2cc(C)c(=O)[nH]c2=O)O1)Oc1ccc(Br)cc1 (stereo partly shown) | 0.7311 | (791.8 ± 113.1) ml/kg |  |  |  | 
3 | COC(=O)[C@H](C)NP(=O)(OCC1C=CC(n2cc(C)c(=O)[nH]c2=O)O1)Oc1ccc(OC)cc1 (stereo partly shown) [Compound 598, 5′-[4-Methoxyphenyl methoxylaninylphosphate]-2′, 3′-didehydro-3′-deoxy thymidine] |  |  | 555 ± 115 | 0.0102 | 0.39 | 11900 (≈ 24 mM)
4 | COC(=O)[C@H](C)NP(=O)(OCC1C=CC(n2cc(C)c(=O)[nH]c2=O)O1)Oc1cccc(N(C)C)c1 (stereo partly shown) [Compound 599, 5′-[3-Dimethylaminophenyl methoxylaninylphosphate]-2′, 3′-didehydro-3′-deoxy thymidine] |  |  | 230 ± 20 | 0.0058 | 0.76 | 18000 (≈ 35.4 mM)
5 | COC(=O)C(C)NP(=O)(OCC1C=CC(n2cc(C)c(=O)[nH]c2=O)O1)Oc1c(OC)cccc1OC (stereo not shown) [Compound 600, 5′-[2,6-Dimethoxyphenylmethoxyalaninyl phosphate]-2′, 3′-didehydro-3′-deoxy thymidine] |  |  | 290 ± 120 | 0.0029 | 0.40 | 43600
6 | COC(=O)[C@H](C)NP(=O)(OCC1C=CC(n2cc(C)c(=O)[nH]c2=O)O1)Oc1ccc(C#N)cc1 (stereo partly shown) [Compound 601, 5′-[4-Cyanophenylmethoxyalaninyl phosphate]-2′, 3′-didehydro-3′-deoxy thymidine] |  |  | 575 ± 5 | 0.1199 | 0.05* | 4000
7 | COC(=O)C(C)NP(=O)(OCC1C=CC(n2cc(C)c(=O)[nH]c2=O)O1)Oc1cccc(Br)c1 (stereo not shown) [Compound 602, 5′-[3-Bromophenylmethoxyalaninyl phosphate]-2′, 3′-didehydro-3′-deoxy thymidine] |  |  | 235 ± 145 | 0.0338 |  | 
8 | COC(=O)C(C)NP(=O)(OCC1C=CC(n2cc(C)c(=O)[nH]c2=O)O1)Oc1ccc(Br)cc1Cl (stereo not shown) [Compound 603, 5′-[4-Bromo-2-chlorophenylmethoxyalaninyl phosphate]-2′, 3′-didehydro-3′-deoxy thymidine] |  |  | 80 ± 10 | 0.1500 | 1.81 | 1800
9 | COC(=O)[C@H](C)NP(=O)(OCC1C=CC(n2cc(C)c(=O)[nH]c2=O)O1)Oc1ccc(F)cc1 (stereo partly shown) [Compound 604, 5′-[4-Flurophenylmethoxyalaninyl phosphate]-2′, 3′-didehydro-3′-deoxy thymidine] |  |  | 100 ± 40 | 0.0117 | 0.54 | 7500
10 | COC(=O)C(C)NP(=O)(OCC1C=CC(n2cc(C)c(=O)[nH]c2=O)O1)Oc1ccccc1Br (stereo not shown) [Compound 605, 5′-[2-Bromophenylmethoxyalaninyl phosphate]-2′, 3′-didehydro-3′-deoxy thymidine] |  |  | 38.5 ± 22 | 0.0336 | 0.95 | 4200
11 | COC(=O)C(C)NP(=O)(OCC1C=CC(n2cc(C)c(=O)[nH]c2=O)O1)Oc1ccccc1Cl (stereo not shown) [Compound 606, 5′-[2-Chlorophenylmethoxyalaninyl phosphate]-2′, 3′-didehydro-3′-deoxy thymidine] |  |  | 28.5 ± 12 | 0.0370 | 0.84 | 7300
12 | COC(=O)[C@H](C)NP(=O)(OCC1C=CC(n2cc(C)c(=O)[nH]c2=O)O1)Oc1ccccc1 (stereo partly shown) [Compound 607, 5′-[Phenyl methoxylaninylphosphate]-2′, 3′-didehydro-3′-deoxy thymidine] |  |  | 57.5 ± 23 | 0.0082 | 0.38 | 44700 (≈ 96 mM)
13 | COC(=O)C(C)NP(=O)(OCC1C=CC(n2cc(C)c(=O)[nH]c2=O)O1)Oc1cc(Cl)ccc1Cl (stereo not shown) [Compound 608, 5′-[2,5-Dichlorophenylmethoxyalaninyl phosphate]-2′, 3′-didehydro-3′-deoxy thymidine] |  |  | 33 ± 17 | 0.1840 | 1.41 | 3700
